One assay deals with NCI-H2228 cell line. The assay is described as follows: CellTiter-Glo cell proliferation inhibition on NCI-H2228 cell line. The assay is classed as cell-based. The settings on record: Homo sapiens, NCI-H2228, 96 h, NCI-H2228 cells, 5000 cells/well, 4 days drug treatment. Summed up:
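NCI-H2228 cells, 5000/well in RPMI-1640 + 10% FBS, treated with compounds 2 h after seeding (0.5% DMSO final) for 4 days at 37° C. Viability by CellTiter-Glo luminescence; inhibition relative to DMSO control, IC50 from curve fit.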

In another assay the target is T1, Wild Type ALK kinase (Homo sapiens, UniProt Q9UM73).
T1 construct: purchased Sino-US Crown Bioscience, Inc. batch number ALK 20110607
Briefly: HTRF KinEASE-TK assay, inhibitory activity on wild type ALK kinase. It counts as biochemical. The settings on record: wild type ALK 1 ng/μl, substrate 1 μM, 30° C. 35 minutes, read-out: Inhibition on ALK kinases (wildtype), IC50. The method, boiled down:
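ALK kinase at 1 ng/μl and substrate at 1 μM were reacted with compound (1% DMSO) in buffer with 5 mM MgCl2 and 1 mM DTT for 35 min at 30 °C. HTRF detection used the 665/615 ratio, normalised to no-compound wells and to 10.4 μM LDK-378 wells. IC50 came from a concentration-response fit.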
(In general: Time-resolved FRET reads energy transfer from a long-lived donor to a nearby acceptor.)

For a further assay, the target named is cytochrome P450 2D6 (Homo sapiens, UniProt P10635). The assay is described as follows: Inhibitory activity on cytochrome P450 2D6. The assay is classed as in vitro ADME. Particulars: no significant inhibition.
Another assay deals with T2, cytochrome P450 1A2 (Homo sapiens, UniProt P05177).
T2 sequence (P05177 1-516): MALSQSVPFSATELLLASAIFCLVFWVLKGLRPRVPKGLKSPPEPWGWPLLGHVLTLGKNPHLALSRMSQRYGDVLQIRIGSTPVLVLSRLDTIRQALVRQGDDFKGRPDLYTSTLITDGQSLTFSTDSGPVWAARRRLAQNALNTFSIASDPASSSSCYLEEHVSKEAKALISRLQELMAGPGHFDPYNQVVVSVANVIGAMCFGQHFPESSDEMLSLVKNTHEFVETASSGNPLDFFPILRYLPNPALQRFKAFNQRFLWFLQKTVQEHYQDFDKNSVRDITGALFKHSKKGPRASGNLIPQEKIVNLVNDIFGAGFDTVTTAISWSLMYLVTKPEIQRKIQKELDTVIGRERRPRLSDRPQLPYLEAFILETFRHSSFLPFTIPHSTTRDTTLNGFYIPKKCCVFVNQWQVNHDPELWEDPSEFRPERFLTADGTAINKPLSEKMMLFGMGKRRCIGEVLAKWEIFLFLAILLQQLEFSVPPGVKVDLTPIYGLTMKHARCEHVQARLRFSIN
The assay is described as follows: Inhibitory activity on cytochrome P450 1A2. The assay is classed as in vitro ADME. The settings on record: no significant inhibition.

The target of a further assay is cytochrome P450 2C9 (Homo sapiens, UniProt P11712). The assay is described as follows: Inhibitory activity on cytochrome P450 2C9. The assay is classed as in vitro ADME. The settings on record: no significant inhibition.
Another assay concerns the target cytochrome P450 2C19 (Homo sapiens, UniProt P33261). The assay is described as follows: Inhibitory activity on cytochrome P450 2C19. It counts as in vitro ADME. The settings on record: no significant inhibition.

The text below walks through data of patent US10023593B2, “ALK kinase inhibitor, and preparation method and uses thereof” (BEIJING PEARL BIOTECHNOLOGY LIMITED LIABILITY COMPANY, priority 2014, dated 2018).

pIC50: −log10 of the molar value.

cytochrome P450 2C19, sequence (P33261 whole entry): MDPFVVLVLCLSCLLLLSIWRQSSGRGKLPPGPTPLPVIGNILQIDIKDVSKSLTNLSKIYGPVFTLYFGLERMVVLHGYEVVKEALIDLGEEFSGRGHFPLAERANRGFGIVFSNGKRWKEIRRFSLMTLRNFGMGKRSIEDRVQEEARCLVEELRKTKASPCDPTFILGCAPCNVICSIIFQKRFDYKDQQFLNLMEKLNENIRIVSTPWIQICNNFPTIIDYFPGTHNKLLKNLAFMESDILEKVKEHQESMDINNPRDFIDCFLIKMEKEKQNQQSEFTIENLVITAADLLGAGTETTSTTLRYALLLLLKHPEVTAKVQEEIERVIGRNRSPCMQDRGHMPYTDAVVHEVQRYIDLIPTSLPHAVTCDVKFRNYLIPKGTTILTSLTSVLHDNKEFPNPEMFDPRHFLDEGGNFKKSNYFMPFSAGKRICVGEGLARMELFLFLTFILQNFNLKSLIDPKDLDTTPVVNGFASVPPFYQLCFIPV
T1 sequence (Q9UM73 19-1620): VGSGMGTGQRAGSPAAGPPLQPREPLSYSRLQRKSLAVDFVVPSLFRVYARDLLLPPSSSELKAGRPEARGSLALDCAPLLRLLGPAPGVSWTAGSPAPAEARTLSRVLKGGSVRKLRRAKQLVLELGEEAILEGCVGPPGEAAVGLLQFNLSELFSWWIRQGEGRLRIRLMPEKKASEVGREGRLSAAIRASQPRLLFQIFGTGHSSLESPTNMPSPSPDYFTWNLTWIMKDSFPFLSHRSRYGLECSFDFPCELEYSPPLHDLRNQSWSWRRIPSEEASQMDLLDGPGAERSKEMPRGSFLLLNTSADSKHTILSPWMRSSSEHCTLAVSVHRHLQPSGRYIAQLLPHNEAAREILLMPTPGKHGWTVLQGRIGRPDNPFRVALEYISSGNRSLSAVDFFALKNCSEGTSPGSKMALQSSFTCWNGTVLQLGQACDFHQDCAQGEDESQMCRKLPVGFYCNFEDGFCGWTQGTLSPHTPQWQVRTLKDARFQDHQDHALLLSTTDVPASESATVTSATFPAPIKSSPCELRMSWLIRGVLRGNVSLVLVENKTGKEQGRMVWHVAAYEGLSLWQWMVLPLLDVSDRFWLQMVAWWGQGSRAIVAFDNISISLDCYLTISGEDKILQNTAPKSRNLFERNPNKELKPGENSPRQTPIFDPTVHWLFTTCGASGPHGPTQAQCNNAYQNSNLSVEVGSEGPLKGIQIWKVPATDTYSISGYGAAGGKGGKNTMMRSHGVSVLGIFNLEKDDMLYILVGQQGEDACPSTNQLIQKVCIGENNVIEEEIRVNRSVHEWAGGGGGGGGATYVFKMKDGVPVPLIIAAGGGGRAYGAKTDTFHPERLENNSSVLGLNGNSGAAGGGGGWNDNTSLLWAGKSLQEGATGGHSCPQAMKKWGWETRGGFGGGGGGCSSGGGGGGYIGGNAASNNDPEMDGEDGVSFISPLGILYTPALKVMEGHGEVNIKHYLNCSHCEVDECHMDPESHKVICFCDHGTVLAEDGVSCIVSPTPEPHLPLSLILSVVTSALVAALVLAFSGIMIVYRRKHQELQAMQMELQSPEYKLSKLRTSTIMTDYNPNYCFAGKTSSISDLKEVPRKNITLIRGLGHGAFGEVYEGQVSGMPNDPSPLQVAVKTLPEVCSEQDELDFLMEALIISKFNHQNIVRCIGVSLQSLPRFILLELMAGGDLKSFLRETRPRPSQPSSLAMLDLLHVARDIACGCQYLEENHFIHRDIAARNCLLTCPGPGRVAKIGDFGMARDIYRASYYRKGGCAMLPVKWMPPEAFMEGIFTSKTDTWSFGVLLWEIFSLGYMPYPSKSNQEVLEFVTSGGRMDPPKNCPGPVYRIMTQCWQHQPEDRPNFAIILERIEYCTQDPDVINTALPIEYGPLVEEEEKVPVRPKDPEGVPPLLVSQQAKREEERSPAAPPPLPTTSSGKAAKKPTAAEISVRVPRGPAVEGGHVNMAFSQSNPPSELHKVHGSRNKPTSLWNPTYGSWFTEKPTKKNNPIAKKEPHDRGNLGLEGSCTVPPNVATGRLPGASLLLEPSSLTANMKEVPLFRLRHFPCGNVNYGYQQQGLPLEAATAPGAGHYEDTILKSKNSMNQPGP
cytochrome P450 2C9, sequence (P11712 whole entry): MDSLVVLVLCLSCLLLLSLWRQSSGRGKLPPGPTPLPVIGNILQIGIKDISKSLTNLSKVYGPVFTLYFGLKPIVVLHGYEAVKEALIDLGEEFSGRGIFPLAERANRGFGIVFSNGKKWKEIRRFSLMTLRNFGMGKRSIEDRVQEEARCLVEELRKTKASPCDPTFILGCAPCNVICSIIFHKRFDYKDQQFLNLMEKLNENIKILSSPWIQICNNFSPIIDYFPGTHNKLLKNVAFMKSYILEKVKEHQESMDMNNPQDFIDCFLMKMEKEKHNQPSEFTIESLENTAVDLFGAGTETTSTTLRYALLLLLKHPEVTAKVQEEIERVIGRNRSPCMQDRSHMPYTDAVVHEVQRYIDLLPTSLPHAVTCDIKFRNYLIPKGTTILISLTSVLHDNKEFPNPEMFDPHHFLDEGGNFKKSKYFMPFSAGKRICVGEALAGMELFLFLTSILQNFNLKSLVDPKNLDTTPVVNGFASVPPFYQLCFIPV
cytochrome P450 2D6, sequence (P10635 whole entry): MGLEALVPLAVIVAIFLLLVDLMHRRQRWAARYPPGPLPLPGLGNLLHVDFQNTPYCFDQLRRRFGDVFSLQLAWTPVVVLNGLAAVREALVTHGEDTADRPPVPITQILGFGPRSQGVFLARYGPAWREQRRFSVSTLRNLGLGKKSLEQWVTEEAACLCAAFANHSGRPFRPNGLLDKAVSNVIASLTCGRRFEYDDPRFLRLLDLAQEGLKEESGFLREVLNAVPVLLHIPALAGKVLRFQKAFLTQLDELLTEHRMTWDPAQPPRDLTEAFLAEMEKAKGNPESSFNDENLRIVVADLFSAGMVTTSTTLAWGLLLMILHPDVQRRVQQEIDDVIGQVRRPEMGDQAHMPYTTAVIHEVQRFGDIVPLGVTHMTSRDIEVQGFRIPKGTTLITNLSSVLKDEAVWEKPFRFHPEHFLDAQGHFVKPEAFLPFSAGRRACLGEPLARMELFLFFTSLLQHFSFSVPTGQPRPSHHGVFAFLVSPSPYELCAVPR

Regarding `CC(C)Oc1cc(C2CCNCC2)ccc1Nc1ncc(Cl)c(Nc2cn(C)nc2S(=O)(=O)C(C)C)n1` [Final product 1, 5-chloro-N^2-[2-isopropoxy-4-(piperidin-4-yl)phenyl]-N^4-(3-isopropylsulfonyl-1-methyl-1H-pyrazol-4-yl)pyrimidin-2,4-diamine], the results for the pIC50 in the assay with NCI-H2228 cell line and on Wild Type ALK kinase were 6.74 and 8.40, respectively.

In the case of `Cc1cc(Nc2ncc(Cl)c(Nc3cn(C)nc3S(=O)(=O)C(C)C)n2)c(OC(C)C)cc1C1CCNCC1` [Final product 2], the results for the negative logarithm of the IC50 (pIC50) in the assay on NCI-H2228 cell line and at Wild Type ALK kinase were 6.70 and 8.22, respectively.

For the molecule `Cc1cc(Nc2ncc(Cl)c(Nc3cn(C)nc3S(=O)(=O)C(C)C)n2)c(OC(C)C)cc1C1CCNC1` (stereo not shown) [Final product 3], the pIC50 in the assay on NCI-H2228 cell line is 6.44; on Wild Type ALK kinase it was 8.40.

Regarding `Cc1cc(Nc2ncc(Cl)c(Nc3cn(C)nc3S(=O)(=O)C(C)C)n2)c(OC2CC2)cc1C1CCN(C)C1` (stereo not shown) [Final product 53], the pIC50 was 6.88 in the assay with NCI-H2228 cell line and 8.52 on Wild Type ALK kinase.

As for `Cc1cc(Nc2ncc(Cl)c(Nc3cn(C)nc3S(=O)(=O)C(C)C)n2)c(OC2CC2)cc1C1CN(C)C1` [Final product 54], the pIC50 in the assay on NCI-H2228 cell line is 7.74; on Wild Type ALK kinase it was 8.52.

On to `Cc1cc(Nc2ncc(Cl)c(Nc3cn(C)nc3S(=O)(=O)CC(C)C)n2)c(OC2CC2)cc1C1CN(C)C1` [Final product 55], for which the results for the pIC50 in the assay on NCI-H2228 cell line and on Wild Type ALK kinase were 6.74 and 8.40, respectively.

As for `Cc1cc(Nc2ncc(Cl)c(Nc3cn(C4CC4)nc3S(=O)(=O)C(C)C)n2)c(OC2CC2)cc1C1CCN(C)CC1` [Final product 56], the pIC50 was 6.85 in the assay with NCI-H2228 cell line and 8.30 at Wild Type ALK kinase.

For `Cc1cc(Nc2ncc(Cl)c(Nc3cn(C)nc3S(=O)(=O)CC(C)C)n2)c(OC2CC2)cc1C1CCN(C)CC1` [Final product 57], the pIC50 against cytochrome P450 2D6 is < 5.00; against cytochrome P450 1A2, < 5.00; with NCI-H2228 cell line it was 6.97; at cytochrome P450 2C9 it was < 5.00; at cytochrome P450 2C19, < 5.00; on Wild Type ALK kinase, 8.15.

As to `COC1CN(C)CCC1c1cc(OC2CC2)c(Nc2ncc(Cl)c(Nc3cn(C)nc3S(=O)(=O)C(C)C)n2)cc1C` (stereo not shown) [Final product 58], the pIC50 in the assay with NCI-H2228 cell line was 7.26; at Wild Type ALK kinase, 8.40.

For the molecule `COCC1CC(c2cc(OC3CC3)c(Nc3ncc(Cl)c(Nc4cn(C)nc4S(=O)(=O)C(C)C)n3)cc2C)CCN1C` (stereo not shown) [Final product 77], the negative-log IC50 (pIC50) on cytochrome P450 2D6 was < 5.00; against cytochrome P450 1A2, < 5.00; in the assay on NCI-H2228 cell line, 7.60; against cytochrome P450 2C9, < 5.00; against cytochrome P450 2C19 it was < 5.00; on Wild Type ALK kinase it was 8.70.

On to `COCC1CC(c2cc(OC3CC3)c(Nc3ncc(Cl)c(Nc4cn(C)nc4S(=O)(=O)CC(C)C)n3)cc2C)CCN1C` (stereo not shown) [Final product 79], for which the results for the pIC50 in the assay with NCI-H2228 cell line and at Wild Type ALK kinase were 7.21 and 8.52, respectively.

Regarding `Cc1cc(Nc2ncc(Cl)c(Nc3cn(C4CC4)nc3S(=O)(=O)C(C)C)n2)c(OC(C)C)cc1C1CCN(C)CC1` [Final product 81], the pIC50 is 6.72 in the assay on NCI-H2228 cell line and 7.96 at Wild Type ALK kinase.

In the case of `COCCN1CCC(c2cc(OC3CC3)c(Nc3ncc(Cl)c(Nc4cn(C)nc4S(=O)(=O)C(C)C)n3)cc2C)CC1` [Final product 82], the pIC50 was < 5.00 against cytochrome P450 2D6; < 5.00 against cytochrome P450 1A2; 7.37 with NCI-H2228 cell line; < 5.00 against cytochrome P450 2C9; < 5.00 against cytochrome P450 2C19; 8.40 at Wild Type ALK kinase.

As to `Cc1cc(Nc2ncc(Cl)c(Nc3cn(C)nc3S(=O)(=O)C(C)C)n2)c(OC2CC2)cc1C1CCN(C)CC1F` (stereo not shown) [Final product 87], the pIC50 in the assay with NCI-H2228 cell line was 6.95; at Wild Type ALK kinase, 8.22.

Turning to `Cc1cc(Nc2ncc(Cl)c(Nc3cn(C)nc3S(=O)(=O)C(C)C)n2)c(OC2CC2)cc1C1CCN(C)CC1(F)F` (stereo not shown) [Final product 88], the pIC50 was 7.14 in the assay on NCI-H2228 cell line and 8.22 at Wild Type ALK kinase.

`Cc1cc(Nc2ncc(Cl)c(Nc3cn(C)nc3S(=O)(=O)C(C)C)n2)c(OC2CC2)cc1C1CCN(C)CC1C` (stereo not shown) [Final product 90]: the figures for the negative-log IC50 (pIC50) in the assay on NCI-H2228 cell line and on Wild Type ALK kinase were 7.35 and 9.00, respectively.

In the case of `Cc1cc(Nc2ncc(Cl)c(Nc3cn(C)nc3S(=O)(=O)C(C)C)n2)c(OC2CC2)cc1C1CCC(NS(C)(=O)=O)CC1` (stereo not shown) [Final product 205, N-(4-(4-(5-chloro-4-(3-(isopropylsulfonyl)-1-methyl-1H-pyrazol-4-amine)pyrimidin-2-amine)-5-cyclopropoxy-2-methylphenyl)cyclohexyl)methanesulfonamide], the pIC50 was < 5.00 against cytochrome P450 2D6; < 5.00 at cytochrome P450 1A2; 6.82 in the assay with NCI-H2228 cell line; < 5.00 at cytochrome P450 2C9; < 5.00 on cytochrome P450 2C19.

For orientation: pIC50 means the IC50 on a negative log10 scale, so that one unit is a factor of ten.
